The values that follow come from patent EP0489933A1, “BILE ALCOHOL AND DRUG CONTAINING THE SAME AS ACTIVE INGREDIENT” (TSUMURA CO., LTD., priority 1990, dated 1992).

Test [1] deals with platelet rich plasma (PRP). The test can be described thus: Platelet aggregation in platelet rich plasma after oral administration. Conditions: 30 mg/kg, p.o., blood 90 minutes after administration. The test is classed as in vivo, male rat. The essentials:
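Male rats fasted 18–24 h were dosed orally and bled 90 min later into citrate (1:9). PRP was adjusted with PPP to 3×10⁵ ± 2×10⁴ platelets/µl and warmed 3 min at 37°C. ADP (1×10⁻⁵ M solution) or collagen (1×10⁻⁵ g/ml solution) was added, and aggregation was read as transmittance at 940 nm.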

For test [2], the system named is male SD rats. As to the kind of experiment: Thrombus formation in abdominal vena cava. The test is classed as in vivo. The note with it: 30 mg/kg, p.o.; dry weight of thrombus. Summed up:
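Anaesthetised male SD rats (130–210 g) had the infrarenal vena cava clipped 5 min and reflowed 5 min, then ligation just below the renal vein; thrombus was removed 2 h later, dried (80 °C, ≥12 h) and weighed. Oral dosing was 90 min before clipping, or for 7 days in 6-week-old rats, induced day 8.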

In test [3] the test system is male mice of ddY line. The test can be described thus: Blood oxygen and carbon dioxide partial pressure. It counts as in vivo. The note with it: 20 mg/kg, i.p.; blood from abdominal aorta 60 minutes after administration. Summed up:
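4-week-old male ddY mice (n=10/group) fasted 24 h were dosed with compound. At 60 min, abdominal aortic blood was drawn under Nembutal anesthesia (50 mg/kg i.p.), and PO₂ and PCO₂ were measured immediately with a blood gas analyzer.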

Test [4] has as its system rats of diabetes mellitus. As to the kind of experiment: Blood sugar level in streptozotocin-induced diabetes mellitus. It counts as in vivo, male rats of Wistar line. The note with it: 50 mg/kg, i.o.; administered for 1 week beginning 1 week after streptozotocin (40 mg/kg); serum. Summed up:
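Male Wistar rats, 8 weeks old (5 per group), made diabetic with streptozotocin 40 mg/kg i.v.; from 1 week later, test drug given orally for 1 week, then 24 h fast. Serum glucose measured in vena cava blood taken under Nembutal anaesthesia.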

In test [5] the test system is red blood cells. The test can be described thus: Inhibition of thermal hemolysis of red blood cells. The test is classed as cell-based, donryu rats. Conditions: 53°C for 20 minutes; for inhibition at 10 µM / inhibition at 50 µM / inhibition at 100 µM / inhibition at 200 µM / inhibition at 500 µM: Rattus norvegicus, Erythrocyte, 20 min, read-out: Hemolysis Inhibition Ratio (%) against Control.

The test system of test [6] is erythrocytes. The test can be described thus: Erythrocyte deformability (filtration through 5 µm filter) after oral administration. It counts as in vivo, male rats of Wistar line. The note with it: 30 mg/kg, p.o.; blood collected 90 minutes after administration; number of filtered erythrocytes. Summed up:
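Male Wistar rats, 9 weeks old and fasted 24 h, were dosed orally; 90 min later vena cava blood was drawn under Nembutal anaesthesia. Blood was forced through a 5 µm filter under constant He flow, and deformability was expressed from the number of erythrocytes filtered in a fixed time.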

Test [7] relates to male mice of ddY line. The test can be described thus: Survival time under hypoxia (aeration with 96% nitrogen and 4% oxygen). The test is classed as in vivo. Conditions: 50 mg/kg, i.p., 60 minutes before aeration with 96% nitrogen and 4% oxygen; time to respiratory arrest. The essentials: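 Fasted (24 h) male ddY mice, 5–6 weeks old, 10 per group, dosed intraperitoneally. Survival time to respiratory arrest was recorded.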

Test [8] relates to male mice of ddY line. It counts as in vivo. The note with it: 50 mg/kg, i.p., 60 minutes before KCN (3.0 mg/kg) tail intravenous injection; for Survival Time ±S.E.: time to respiratory arrest.

Each structure is given as a SMILES string. Read-outs that look alike come from different tables or passages of the source.

Take `C[C@H](CC[C@H](O)CCO)[C@H]1CC[C@H]2[C@@H]3[C@H](O)C[C@@H]4C[C@H](O)CC[C@]4(C)[C@H]3C[C@H](O)[C@]12C` [Illustrative Example 3, 27-nor-(24S)-(+)-3α,7α,12α,24,26-pentahydroxy-5β-cholestane]: the “Platelet Aggregation Ratio ±S.E.” value in test [1] (ADP (1×10⁻⁵ M)) is 50.3 ± 1.38%; in test [1] (Collagen (1×10⁻⁵ g/ml)), 45.5 ± 2.66%. Moreover, the “Antithrombotic Effect: Thrombus weight ±S.E.” value (“Antithrombotic Effect” for short) in test [2] is on record as 12.3 ± 3.55 mg. In addition, in test [3], the “Carbon Dioxide Partial Pressure” value worked out at 40.8 mmHg. The “Oxygen Partial Pressure” value in test [3] turned out to be 89.9 mmHg. Also, the “Blood Sugar Level ± S.E.” value in test [4] came out at 165 ± 6.6 mg/dL. Further, the “Hemolysis Inhibition Ratio (%) against Control” value in test [5] (0.01 mM) was 38%; in test [5] (0.05 mM), 31%; in test [5] (0.1 mM), 22%; in test [5] (0.2 mM), 41%; in test [5] (0.5 mM), 61%. The “Erythrocyte Deformation: Erythrocyte counts ±S.E.” value (“Erythrocyte Deformation” below) in test [6] came out at 3.81 ± 0.23 × 10⁷. The “Survival Time ±S.E.” value in test [7] came to 109.2 ± 4.77 s; in test [8], 97.2 ± 8.51 s. In test [8], the “Lethality (%)” value was 80%.

With `C[C@H](CCCC(C)(O)CO)[C@H]1CC[C@H]2[C@@H]3[C@H](O)C[C@@H]4C[C@H](O)CC[C@]4(C)[C@H]3C[C@H](O)[C@]12C` (stereo partly drawn) [Illustrative Example 4, 5β-cholestane-3α,7α,12α,25,26-pentol], the “Platelet Aggregation Ratio ±S.E.” value in test [1] (ADP (1×10⁻⁵ M)) amounted to 42.5 ± 1.65%. In addition, in test [1] (Collagen (1×10⁻⁵ g/ml)), the “Platelet Aggregation Ratio ±S.E.” value worked out at 48.7 ± 2.53%. In addition, the “Antithrombotic Effect” value in test [2] was 14.1 ± 2.11 mg. Moreover, in test [3], the “Carbon Dioxide Partial Pressure” value is 40.5 mmHg and the “Oxygen Partial Pressure” value is on record as 91.9 mmHg. Also, the “Blood Sugar Level ± S.E.” value in test [4] came out at 133 ± 5.4 mg/dL. Further, the inhibition at 10 µM in test [5] (0.01 mM) was 27%. Also, the inhibition at 50 µM in test [5] (0.05 mM) worked out at 25%. Further, in test [5] (0.1 mM), the inhibition at 100 µM is 41%. Besides, the inhibition at 200 µM in test [5] (0.2 mM) is 42%. Moreover, the inhibition at 500 µM in test [5] (0.5 mM) was determined as 49%. For the same compound, the “Erythrocyte Deformation” value in test [6] amounted to 3.93 ± 0.38 × 10⁷. Besides, in test [7], the “Survival Time ±S.E.” value is 118.0 ± 5.11 s. In test [8], the “Lethality (%)” value amounted to 70% and the “Survival Time ±S.E.” value amounted to 119.0 ± 7.12 s.

As for `CC(C)C(O)CC[C@@H](C)[C@H]1CC[C@H]2[C@@H]3[C@H](O)C[C@@H]4C[C@H](O)CC[C@]4(C)[C@H]3C[C@H](O)[C@]12C` (stereo partly drawn) [Illustrative Example 5, 3α,7α,12α,24-tetrahydroxy-5β-cholestane], the “Platelet Aggregation Ratio ±S.E.” value in test [1] (ADP (1×10⁻⁵ M)) is on record as 44.8 ± 3.62%. Further, in test [1] (Collagen (1×10⁻⁵ g/ml)), the “Platelet Aggregation Ratio ±S.E.” value worked out at 49.9 ± 4.85%. In addition, in test [2], the “Antithrombotic Effect” value amounted to 13.8 ± 3.77 mg. Also, in test [3], the “Carbon Dioxide Partial Pressure” value was found to be 41.2 mmHg and the “Oxygen Partial Pressure” value came to 88.1 mmHg. For the same compound, in test [4], the “Blood Sugar Level ± S.E.” value is 170 ± 7.2 mg/dL. The inhibition at 10 µM in test [5] (0.01 mM) turned out to be 25%. Moreover, the inhibition at 50 µM in test [5] (0.05 mM) stood at 21%. The inhibition at 100 µM in test [5] (0.1 mM) was 33%. Besides, in test [5] (0.2 mM), the inhibition at 200 µM came to 51%. Besides, the inhibition at 500 µM in test [5] (0.5 mM) was determined as 58%. Also, the “Erythrocyte Deformation” value in test [6] is 3.51 ± 0.65 × 10⁷. Moreover, the “Survival Time ±S.E.” value in test [7] came to 110.5 ± 6.71 s. For the same compound, in test [8], the “Lethality (%)” value came out at 80% and the “Survival Time ±S.E.” value turned out to be 101.1 ± 7.8 s.

Take `C[C@H](CCCO)[C@H]1CC[C@H]2[C@@H]3[C@H](O)C[C@@H]4C[C@H](O)CC[C@]4(C)[C@H]3C[C@H](O)[C@]12C` [Illustrative Example 6, 3α,7α,12α,24-tetrahydroxy-5β-cholan]: the “Platelet Aggregation Ratio ±S.E.” value in test [1] (ADP (1×10⁻⁵ M)) is given as 43.5 ± 3.26%. Further, the “Platelet Aggregation Ratio ±S.E.” value in test [1] (Collagen (1×10⁻⁵ g/ml)) amounted to 47.7 ± 2.58%. Moreover, in test [2], the “Antithrombotic Effect” value stood at 12.4 ± 2.39 mg. Moreover, in test [3], the “Carbon Dioxide Partial Pressure” value was determined as 40.1 mmHg and the “Oxygen Partial Pressure” value is 89.6 mmHg. The “Blood Sugar Level ± S.E.” value in test [4] was 159 ± 5.7 mg/dL. In addition, in test [5] (0.01 mM), the inhibition at 10 µM stood at 24%. Further, the inhibition at 50 µM in test [5] (0.05 mM) was 22%. For the same compound, in test [5] (0.1 mM), the inhibition at 100 µM came to 38%. Moreover, the inhibition at 200 µM in test [5] (0.2 mM) worked out at 51%. Besides, the inhibition at 500 µM in test [5] (0.5 mM) was found to be 59%. In addition, the “Erythrocyte Deformation” value in test [6] is reported as 3.71 ± 0.48 × 10⁷. In addition, in test [7], the “Survival Time ±S.E.” value was 115.4 ± 2.24 s. Further, in test [8], the “Lethality (%)” value is on record as 80% and the “Survival Time ±S.E.” value amounted to 105.3 ± 6.84 s.
